From US20230035127A1, “CULTURE AND DIFFERENTIATION OF PLURIPOTENT STEM CELLS” (University of Maryland, College Park, priority 2021, published 2023)
“Also recorded” adds a separate entry of the source.

Columns and labels:
eiPSCs = experiment: Survival/yield of PSCs in 3D suspension culture; type: cell-based, human; conditions: for improvement of cell yield (number of viable cells): 3D culture
Protocol: (§1) To obtain 3D iPSC spheroids, the iPSC colonies under 2D culture at ˜80% confluence were treated with Versene for 2 min, rinsed with PBS, and further detached from the substrate by gentle pipetting. The detached iPSCs were re-suspended in mTeSR1 with Rock inhibitor (Y27632) at 0, 1, 5, or 10 μM. Afterward, the medium was supplemented with 0.35% (v/v) methylcellulose. The cell suspension (12 ml) containing ˜4×10^6 cells was pushed through a cell strainer with 100 μm mesh size. Later, the suspension of iPSC clumps was transferred into a petri dish (diameter: 10 cm) for culture in a humidified incubator at 37° C. and 5% CO2 for 2 days, during which the 2D iPSC clumps grew into 3D iPSC spheroids. Then, the medium was changed to mTeSR1 (supplemented with 0.35% methylcellulose) with no rock inhibitor, to further culture for 2 days before cardiac differentiation. To determine the number of cells per eiPSC spheroid, roughly equal numbers of the spheroids from either the 1 or 10 μM RI group were pooled together and trypsinized to dissociate the cells. The dissociated cells were then resuspended in 1.4 ml of the aforementioned iPSC maintenance medium and the cell number was counted using a hemocytometer. Three independent runs with 282, 260, and 256 spheroids for the 1 μM RI group and 273, 298, and 286 spheroids for the 10 μM RI group were conducted.

[1] = tested on: eiPSC-derived cardiac spheroids; experiment: Immunostaining of cryosectioned eiPSC-derived cardiac spheroids; type: cell-based, human; conditions: cardiac spheroids day 12.5
Protocol: (§2) The iPSC spheroids and the iPSC-derived Cardiac spheroids were fixed in 4% PFA in 1×PBS at 4° C. overnight. The fixed spheroids were incubated sequentially in 10% and 15% sucrose solutions in saline for 4 h, respectively. Afterward, the spheroids were put in a plastic box and embedded in OCT for cryosectioning. Slices of the spheroids of 10 μm thick were obtained by cutting the frozen sample on a Leica cryostat platform and then immediately attached onto the Leica Apex high adhesive glass slides.
(§3) For immunostaining, the slides were gently rinsed twice with 1×PBS to remove the OCT and then incubated with 0.1% Tween-20 and 5% normal goat serum in 1×PBS for 1 h at room temperature (RT) to block non-specific bindings. Later, the samples were incubated with primary antibodies at 4° C. overnight. The dilution and product information of the primary antibodies were as follows: OCT-4 (1:500 dilution, Cell Signaling Technologies), NANOG (1:500 dilution, Cell Signaling Technologies), SSEA-4 (1:500 dilution, Cell Signaling Technologies), cTnT (1:500 dilution, Cell Signaling Technologies), CONNEXIN-43 (CX-43, 1:400 dilution, Santa Cruz Biotechnology), DESMIN (1:500 dilution, Santa Cruz Biotechnology), α-ACTININ (1:500 dilution; Santa Cruz Biotechnology), BRACHYURY (1:500; Santa Cruz Biotechnology), NKX2.5 (1:500; Santa Cruz Biotechnology), NESTIN (1:500; R & D Systems), MUSASHI-1 (1:500; R & D Systems), and TUJ-1 (1:500; R & D Systems). Afterward, the samples were rinsed with 1×PBS thrice and then incubated with the associated secondary antibodies (goat anti-rabbit IgG FITC and goat-anti-mouse IgG PE, Invitrogen) in 1×PBS for 1.5 h at RT. Lastly, the samples were rinsed with 1 ml of 1×PBS for 3 min and the nuclei were stained with 1 μg/ml DAPI solution for 5 min at RT. The samples were imaged with the Zeiss LSM 710 microscope.

IMR90-1 human iPSCs [2] = experiment: 3D cardiac differentiation of IMR90-1 iPSCs: beating cardiac spheroids; type: cell-based; conditions: for percentage of beating IMR90-1 cardiac spheroids: 10 μM RI
Protocol: Another commonly utilized iPSC line (IMR90-1) was tested to confirm that the improved cardiac differentiation of iPSCs with low RI for 3D culture before differentiation is not because of the eiPSCs used. The beating of the resultant IMR90-1 cardiac spheroids peaked at ˜98% on day 7.5 with the OBT being synchronized within ˜1 day for the 1 μM RI group (FIG. 19A). […] This was consistent with the flow cytometry data of the cells in the cardiac spheroids collected on day 12.5, showing that 91% and 32% of the cells were positive for the cardiac-specific protein cTnT (that are crucial for beating) in the 1 and 10 μM RI groups, respectively (FIG. 19B-C). Furthermore, cells in the cardiac spheroids that were positive for neural-specific maker MUSASHI were negligible in the 1 μM RI group, while ˜20% cells in the cardiac spheroids from the 10 μM RI group were MUSASHI positive (FIG. 19B-C).
as §1
The eiPSC spheroids obtained after 4 days of culture on day 0 were induced into mesoderm by up-regulation of the Wnt signaling pathway using 8 μM CHIR99021 and 2 μM GSK inhibitor 6-bromoindirubin-3′-oxime (BIO) in the mesoderm induction medium for 1 day. The mesoderm induction medium was a mixture of DMEM/F12 and α-MEM (v/v, 1:1), containing 2% Knockout Serum Replacement (KOSR), 1 mM L-glutamine, 1% MEM non-essential amino acids (NEAA), and 0.1 mM β-mercaptoethanol. […]

human eiPSCs = experiment: 2D re-plating of 3D iPSC spheroids on Matrigel (colony morphology, immunostaining); type: cell-based; conditions: day 0 spheroids cultured 2 days in 2D
Protocol: To further confirm the aforementioned difference in morphology and protein expression between the 1 and 10 μM RI groups, the 3D iPSC spheroids obtained with 0, 1, and 10 μM RI concentrations collected on day 0 (i.e., after 4-day culture in 3D) were plated on the 2D surface coated with Matrigel in Petri dish (i.e., under conventional 2D culture) and cultured for 2 days to observe the cell morphology.

IMR90-1 human iPSCs [3] = experiment: Immunostaining of IMR90-1 cardiac spheroids; type: cell-based; conditions: day 12.5
Protocol: as §2, §3

C[C@@H](N)[C@H]1CC[C@H](C(=O)Nc2ccncc2)CC1.Cl.Cl (relative stereo) [RI, (+)-(R)-trans-4-(1-aminoethyl)-N-(4-pyridyl) cyclo-hexanecarboxamide dihydrochloride]
cell survival and yield (eiPSCs; 1 μM RI compared to 0 μM RI control, day 0, dihydrochloride): significantly more; also recorded: significantly increases | improvement of cell yield (number of viable cells) (eiPSCs; 10 μM RI compared to 0 μM RI): about 3 times | improvement of cell yield (number of viable cells) (eiPSCs; 10 μM RI compared to 1 μM RI): ~2 times | cells positive for WNT4 and CD44 ([1]; 1 μM RI): not the 1 μM RI group | expression of cTnT and CONNEXIN-43 (CX-43) ([1]; 1 μM RI): highly expressed | staining of neural lineage markers TUJ-1 and MUSASHI-1 ([1]; 1 μM RI): no evident staining | cells positive for WNT4 and CD44 ([1]; 10 μM RI): positive | expression of cTnT and CONNEXIN-43 (CX-43) ([1]; 10 μM RI): either weak (for cTnT) or barely visible (for CX-43) | staining of neural lineage markers TUJ-1 and MUSASHI-1 ([1]; 10 μM RI): positive | outset beating time (OBT) synchronized within (IMR90-1 human iPSCs [2]; 1 μM RI): ≤ 1 days | time within which cardiac spheroids start to beat (IMR90-1 human iPSCs [2]; 1 μM RI): ≤ 24 h | percentage of beating IMR90-1 cardiac spheroids (IMR90-1 human iPSCs [2]; day 7.5): 11.5% | percentage of beating IMR90-1 cardiac spheroids (IMR90-1 human iPSCs [2]; in a week, day 13.5): 34.1% | immunostaining of neural and pluripotency markers in re-plated colonies (human eiPSCs; 1 μM RI): positive expression of OCT-4 and NANOG and were negative for NESTIN and TUJ-1 | morphology of re-plated eiPSC colonies (human eiPSCs; 1 μM RI): typical with tightly packed cells | immunostaining of neural and pluripotency markers in re-plated colonies (human eiPSCs; 10 μM RI): positive staining of neural markers (NESTIN and TUJ-1) and weakened/no staining of pluripotency markers (OCT-4 and NANOG) | morphology of re-plated eiPSC colonies (human eiPSCs; 10 μM RI): more loosely packed | expression of cTnT and CX-43 (IMR90-1 human iPSCs [3]; 1 μM RI): high with an evident expression of the gap junction protein CX-43 | immunostaining of neural markers MUSASHI and TUJ-1 (IMR90-1 human iPSCs [3]; 1 μM RI): negligible | expression of cTnT and CX-43 (IMR90-1 human iPSCs [3]; 10 μM RI): low and negligible, respectively | immunostaining of neural markers MUSASHI and TUJ-1 (IMR90-1 human iPSCs [3]; 10 μM RI): existence of MUSASHI- and TUJ-1-positive cells
